Test results: patent US20190185417A1, “NOVEL ANTIBIOTICS” (priority 2016, published 2019)

Experiments:
Format in all cases: cell-based
[1] = tested on: Haemophilus influenzae (ATCC 49247); assay: MIC by broth microdilution; conditions: Table 2, Example 2
Protocol: (§1) The antibacterial potency of the test article(s) was measured using the in vitro broth microdilution assay under assay conditions described by the Clinical and Laboratory Standards Institute. […] The test substance was dissolved in 100% DMSO (unless stated below), suspended completely by sonication or vortexing, diluted by 2-fold serial titrations in the same vehicle, for a total of 11 test concentrations. A 4 μL aliquot of each dilution was added to 196 μL of broth medium seeded with the organism suspension in wells of a 96 well plate (bacterial count: 2−8×10^5 colony forming units/mL final). The final volume was 200 μL in each well and the final DMSO concentration was 2 percent. Following incubation, the test plates were visually examined and wells were scored for growth or complete growth inhibition to define the minimum inhibitory concentration. Each test substance was evaluated in duplicate and the results below are the duplicate test values. Vehicle-control and an active reference agent were used as blank and positive controls, respectively.

[2] = tested on: Acinetobacter baumannii (ATCC 17978); assay: MIC by broth microdilution
Protocol: as §1, with “DMSO,” for “DMSO (unless stated below),”, “incubation for 1 day at 36° C.,” for “incubation,”, “were reported as” for “below are”, “respectively. Microorganisms tested were Acinetobacter baumannii (ATCC 17978), Enterococcus faecalis (ATCC 29212), Enterococcus faecium VanA (ATCC 700221), Escherichia coli (ATCC 25922), Escherichia coli efflux defective DEL-tolC (JW5503), Heamophilus influenzae (ATCC 49247), Klebsiella pneumoniae (ATCC 43816), Pseudomonas aeruginosa (ATCC 27853), Pseudomonas aeruginosa MDR (NTUH-974), Staphylococcus aureus (ATCC 29213), Staphylococcus aureus MRSA (ATCC 33591) and Streptococcous pneumoniae (ATCC 46919). H. influenzae was grown in Haemophilus Test Medium and S. pneumoniae was grown in cation adjusted Muller-Hinton Broth II with 5% lysed horse blood. All other microorganisms were grown in cation adjusted Muller-Hinton Broth II.” for “respectively.”
as §1

[3] = tested on: Klebsiella pneumoniae (ATCC 43816); assay: MIC by broth microdilution
Protocol: as §1, with “DMSO,” for “DMSO (unless stated below),”, “incubation for 1 day at 36° C.,” for “incubation,”, “were reported as” for “below are”, “respectively. Microorganisms tested were Acinetobacter baumannii (ATCC 17978), Enterococcus faecalis (ATCC 29212), Enterococcus faecium VanA (ATCC 700221), Escherichia coli (ATCC 25922), Escherichia coli efflux defective DEL-tolC (JW5503), Heamophilus influenzae (ATCC 49247), Klebsiella pneumoniae (ATCC 43816), Pseudomonas aeruginosa (ATCC 27853), Pseudomonas aeruginosa MDR (NTUH-974), Staphylococcus aureus (ATCC 29213), Staphylococcus aureus MRSA (ATCC 33591) and Streptococcous pneumoniae (ATCC 46919). H. influenzae was grown in Haemophilus Test Medium and S. pneumoniae was grown in cation adjusted Muller-Hinton Broth II with 5% lysed horse blood. All other microorganisms were grown in cation adjusted Muller-Hinton Broth II.” for “respectively.”
as §1

[4] = tested on: Pseudomonas aeruginosa (ATCC 27853); assay: MIC by broth microdilution
Protocol: as §1, with “DMSO,” for “DMSO (unless stated below),”, “incubation for 1 day at 36° C.,” for “incubation,”, “were reported as” for “below are”, “respectively. Microorganisms tested were Acinetobacter baumannii (ATCC 17978), Enterococcus faecalis (ATCC 29212), Enterococcus faecium VanA (ATCC 700221), Escherichia coli (ATCC 25922), Escherichia coli efflux defective DEL-tolC (JW5503), Heamophilus influenzae (ATCC 49247), Klebsiella pneumoniae (ATCC 43816), Pseudomonas aeruginosa (ATCC 27853), Pseudomonas aeruginosa MDR (NTUH-974), Staphylococcus aureus (ATCC 29213), Staphylococcus aureus MRSA (ATCC 33591) and Streptococcous pneumoniae (ATCC 46919). H. influenzae was grown in Haemophilus Test Medium and S. pneumoniae was grown in cation adjusted Muller-Hinton Broth II with 5% lysed horse blood. All other microorganisms were grown in cation adjusted Muller-Hinton Broth II.” for “respectively.”
as §1

[5] = tested on: Pseudomonas aeruginosa, MDR (NTUH-974); assay: MIC by broth microdilution; conditions: Table 2, Example 2
Protocol: as §1, with “DMSO,” for “DMSO (unless stated below),”, “incubation for 1 day at 36° C.,” for “incubation,”, “were reported as” for “below are”, “respectively. Microorganisms tested were Acinetobacter baumannii (ATCC 17978), Enterococcus faecalis (ATCC 29212), Enterococcus faecium VanA (ATCC 700221), Escherichia coli (ATCC 25922), Escherichia coli efflux defective DEL-tolC (JW5503), Heamophilus influenzae (ATCC 49247), Klebsiella pneumoniae (ATCC 43816), Pseudomonas aeruginosa (ATCC 27853), Pseudomonas aeruginosa MDR (NTUH-974), Staphylococcus aureus (ATCC 29213), Staphylococcus aureus MRSA (ATCC 33591) and Streptococcous pneumoniae (ATCC 46919). H. influenzae was grown in Haemophilus Test Medium and S. pneumoniae was grown in cation adjusted Muller-Hinton Broth II with 5% lysed horse blood. All other microorganisms were grown in cation adjusted Muller-Hinton Broth II.” for “respectively.”
as §1

[6] = tested on: Escherichia coli (ATCC 25922); assay: MIC by broth microdilution
Protocol: as §1, with “DMSO,” for “DMSO (unless stated below),”, “incubation for 1 day at 36° C.,” for “incubation,”, “were reported as” for “below are”, “respectively. Microorganisms tested were Acinetobacter baumannii (ATCC 17978), Enterococcus faecalis (ATCC 29212), Enterococcus faecium VanA (ATCC 700221), Escherichia coli (ATCC 25922), Escherichia coli efflux defective DEL-tolC (JW5503), Heamophilus influenzae (ATCC 49247), Klebsiella pneumoniae (ATCC 43816), Pseudomonas aeruginosa (ATCC 27853), Pseudomonas aeruginosa MDR (NTUH-974), Staphylococcus aureus (ATCC 29213), Staphylococcus aureus MRSA (ATCC 33591) and Streptococcous pneumoniae (ATCC 46919). H. influenzae was grown in Haemophilus Test Medium and S. pneumoniae was grown in cation adjusted Muller-Hinton Broth II with 5% lysed horse blood. All other microorganisms were grown in cation adjusted Muller-Hinton Broth II.” for “respectively.”
as §1

[7] = tested on: Escherichia coli, efflux defective DEL-tolC (JW5503); assay: MIC by broth microdilution
Protocol: as §1, with “DMSO,” for “DMSO (unless stated below),”, “incubation for 1 day at 36° C.,” for “incubation,”, “were reported as” for “below are”, “respectively. Microorganisms tested were Acinetobacter baumannii (ATCC 17978), Enterococcus faecalis (ATCC 29212), Enterococcus faecium VanA (ATCC 700221), Escherichia coli (ATCC 25922), Escherichia coli efflux defective DEL-tolC (JW5503), Heamophilus influenzae (ATCC 49247), Klebsiella pneumoniae (ATCC 43816), Pseudomonas aeruginosa (ATCC 27853), Pseudomonas aeruginosa MDR (NTUH-974), Staphylococcus aureus (ATCC 29213), Staphylococcus aureus MRSA (ATCC 33591) and Streptococcous pneumoniae (ATCC 46919). H. influenzae was grown in Haemophilus Test Medium and S. pneumoniae was grown in cation adjusted Muller-Hinton Broth II with 5% lysed horse blood. All other microorganisms were grown in cation adjusted Muller-Hinton Broth II.” for “respectively.”
as §1

[8] = tested on: Enterococcus faecium, VanA (ATCC 700221); assay: MIC by broth microdilution; conditions: Table 1, Example 1
Protocol: as §1, with “DMSO,” for “DMSO (unless stated below),”, “incubation for 1 day at 36° C.,” for “incubation,”, “were reported as” for “below are”, “respectively. Microorganisms tested were Acinetobacter baumannii (ATCC 17978), Enterococcus faecalis (ATCC 29212), Enterococcus faecium VanA (ATCC 700221), Escherichia coli (ATCC 25922), Escherichia coli efflux defective DEL-tolC (JW5503), Heamophilus influenzae (ATCC 49247), Klebsiella pneumoniae (ATCC 43816), Pseudomonas aeruginosa (ATCC 27853), Pseudomonas aeruginosa MDR (NTUH-974), Staphylococcus aureus (ATCC 29213), Staphylococcus aureus MRSA (ATCC 33591) and Streptococcous pneumoniae (ATCC 46919). H. influenzae was grown in Haemophilus Test Medium and S. pneumoniae was grown in cation adjusted Muller-Hinton Broth II with 5% lysed horse blood. All other microorganisms were grown in cation adjusted Muller-Hinton Broth II.” for “respectively.”

[9] = tested on: Staphylococcus aureus (ATCC 29213); assay: MIC by broth microdilution; conditions: Table 1, Example 1
Protocol: as §1, with “DMSO,” for “DMSO (unless stated below),”, “incubation for 1 day at 36° C.,” for “incubation,”, “were reported as” for “below are”, “respectively. Microorganisms tested were Acinetobacter baumannii (ATCC 17978), Enterococcus faecalis (ATCC 29212), Enterococcus faecium VanA (ATCC 700221), Escherichia coli (ATCC 25922), Escherichia coli efflux defective DEL-tolC (JW5503), Heamophilus influenzae (ATCC 49247), Klebsiella pneumoniae (ATCC 43816), Pseudomonas aeruginosa (ATCC 27853), Pseudomonas aeruginosa MDR (NTUH-974), Staphylococcus aureus (ATCC 29213), Staphylococcus aureus MRSA (ATCC 33591) and Streptococcous pneumoniae (ATCC 46919). H. influenzae was grown in Haemophilus Test Medium and S. pneumoniae was grown in cation adjusted Muller-Hinton Broth II with 5% lysed horse blood. All other microorganisms were grown in cation adjusted Muller-Hinton Broth II.” for “respectively.”

[10] = tested on: Staphylococcus aureus, MRSA (ATCC 33591); assay: MIC by broth microdilution; conditions: Table 1, Example 1
Protocol: as §1, with “DMSO,” for “DMSO (unless stated below),”, “incubation for 1 day at 36° C.,” for “incubation,”, “were reported as” for “below are”, “respectively. Microorganisms tested were Acinetobacter baumannii (ATCC 17978), Enterococcus faecalis (ATCC 29212), Enterococcus faecium VanA (ATCC 700221), Escherichia coli (ATCC 25922), Escherichia coli efflux defective DEL-tolC (JW5503), Heamophilus influenzae (ATCC 49247), Klebsiella pneumoniae (ATCC 43816), Pseudomonas aeruginosa (ATCC 27853), Pseudomonas aeruginosa MDR (NTUH-974), Staphylococcus aureus (ATCC 29213), Staphylococcus aureus MRSA (ATCC 33591) and Streptococcous pneumoniae (ATCC 46919). H. influenzae was grown in Haemophilus Test Medium and S. pneumoniae was grown in cation adjusted Muller-Hinton Broth II with 5% lysed horse blood. All other microorganisms were grown in cation adjusted Muller-Hinton Broth II.” for “respectively.”

[11] = tested on: Enterococcus faecalis (ATCC29212); assay: MIC by broth microdilution; conditions: Table 1, Example 1
Protocol: as §1, with “DMSO,” for “DMSO (unless stated below),”, “incubation for 1 day at 36° C.,” for “incubation,”, “were reported as” for “below are”, “respectively. Microorganisms tested were Acinetobacter baumannii (ATCC 17978), Enterococcus faecalis (ATCC 29212), Enterococcus faecium VanA (ATCC 700221), Escherichia coli (ATCC 25922), Escherichia coli efflux defective DEL-tolC (JW5503), Heamophilus influenzae (ATCC 49247), Klebsiella pneumoniae (ATCC 43816), Pseudomonas aeruginosa (ATCC 27853), Pseudomonas aeruginosa MDR (NTUH-974), Staphylococcus aureus (ATCC 29213), Staphylococcus aureus MRSA (ATCC 33591) and Streptococcous pneumoniae (ATCC 46919). H. influenzae was grown in Haemophilus Test Medium and S. pneumoniae was grown in cation adjusted Muller-Hinton Broth II with 5% lysed horse blood. All other microorganisms were grown in cation adjusted Muller-Hinton Broth II.” for “respectively.”

Gram-negative bacteria = assay: MIC by broth microdilution, overall statement in words; conditions: Example 1, statement in words
Protocol: as §1, with “DMSO,” for “DMSO (unless stated below),”, “incubation for 1 day at 36° C.,” for “incubation,”, “were reported as” for “below are”, “respectively. Microorganisms tested were Acinetobacter baumannii (ATCC 17978), Enterococcus faecalis (ATCC 29212), Enterococcus faecium VanA (ATCC 700221), Escherichia coli (ATCC 25922), Escherichia coli efflux defective DEL-tolC (JW5503), Heamophilus influenzae (ATCC 49247), Klebsiella pneumoniae (ATCC 43816), Pseudomonas aeruginosa (ATCC 27853), Pseudomonas aeruginosa MDR (NTUH-974), Staphylococcus aureus (ATCC 29213), Staphylococcus aureus MRSA (ATCC 33591) and Streptococcous pneumoniae (ATCC 46919). H. influenzae was grown in Haemophilus Test Medium and S. pneumoniae was grown in cation adjusted Muller-Hinton Broth II with 5% lysed horse blood. All other microorganisms were grown in cation adjusted Muller-Hinton Broth II.” for “respectively.”
as §1

For `CN(C)C(=O)c1ccc(CCc2cc(CCc3ccc(C(=O)N(C)C)cc3)cc(CCc3ccc(C(=O)N(C)C)cc3)c2)cc1` [Compound 5 (TSB032)], the MIC [1] was greater than 32.0 µg/mL, the MIC ([2]; Table 2, Example 2) was greater than 32.0 µg/mL and the MIC ([3]; Table 2, Example 2) was greater than 32.0 µg/mL. The MIC ([4]; Table 2, Example 2) was greater than 32.0 µg/mL, the MIC [5] was greater than 32.0 µg/mL and the MIC ([6]; Table 2, Example 2) was greater than 32.0 µg/mL. For the same compound, the MIC ([7]; Table 2, Example 2) was greater than 32.0 µg/mL.
Compound `C[N+](C)(C)Cc1ccc(/C=C/c2cc(/C=C/c3ccc(C[N+](C)(C)C)cc3)cc(/C=C/c3ccc(C[N+](C)(C)C)cc3)c2)cc1.[I-].[I-].[I-]` [Compound 1] has an MIC [8] of 128 µg/mL, an MIC [9] of 32 µg/mL and an MIC [10] of 16 µg/mL. The MIC [11] was 128 µg/mL, the MIC [1] was greater than 128 µg/mL and the “activity against Gram-negative bacteria” value (Gram-negative bacteria) was “active”. The MIC ([2]; Table 1, Example 1) was 128 µg/mL, the MIC ([2]; Table 2, Example 2) was 128 µg/mL and the MIC ([3]; Table 1, Example 1) was 128 µg/mL. For the same compound, the MIC ([3]; Table 2, Example 2) was 128 µg/mL, the MIC ([4]; Table 1, Example 1) was greater than 256 µg/mL and the MIC ([4]; Table 2, Example 2) was greater than 128 µg/mL. It also gave an MIC [5] greater than 128 µg/mL, an MIC ([6]; Table 1, Example 1) of 64 µg/mL and an MIC ([6]; Table 2, Example 2) of 64 µg/mL. For the same compound, the MIC ([7]; Table 1, Example 1) was 32 µg/mL and the MIC ([7]; Table 2, Example 2) was 32 µg/mL.
